# Assay results: the supplement of paper PMC10307832
# Experiments:
# Experiment in all cases: relative viability (nuclei count vs DMSO), 5 days (fraction); higher = more cells survive
# [1] = compound: Cc1ccc2nc(NCCN)c3ncc(C)n3c2c1 + Cc1nc(NC(=O)N2CCC[C@H]2C(N)=O)sc1-c1ccnc(C(C)(C)C(F)(F)F)c1 [Alpelisib] (partner 2 µM)
# In short: (§1)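 Dosing by pin tool came one day after lung cancer cell lines were seeded in 1536-well plates, using either one drug or a fixed anchor-drug dose plus five library-drug doses (not always all listed) in √10 steps. After 5 days, nuclei were counted on 4× images. Relative viability is treated-well nuclei count divided by vehicle-well nuclei count, and values are medians of duplicate plates.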
# [2] = compound: Cc1ccc2nc(NCCN)c3ncc(C)n3c2c1 + Cc1nc(Nc2ncc(C(=O)Nc3c(C)cccc3Cl)s2)cc(N2CCN(CCO)CC2)n1 [Dasatinib] (partner 0.075 µM)
# In short: as §1
# Salubrinal + Foretinib = compound: O=C(/C=C/c1ccccc1)NC(NC(=S)Nc1cccc2cccnc12)C(Cl)(Cl)Cl [Salubrinal] + COc1cc2c(Oc3ccc(NC(=O)C4(C(=O)Nc5ccc(F)cc5)CC4)cc3F)ccnc2cc1OCCCN1CCOCC1 [Foretinib] (partner 0.25 µM)
# In short: as §1
# Salubrinal + Crizotinib = compound: O=C(/C=C/c1ccccc1)NC(NC(=S)Nc1cccc2cccnc12)C(Cl)(Cl)Cl [Salubrinal] + C[C@@H](Oc1cc(-c2cnn(C3CCNCC3)c2)cnc1N)c1c(Cl)ccc(F)c1Cl [Crizotinib] (partner 1 µM)
# In short: as §1
Cell Line,relative viability ([1]; first compound 0.04 µM),relative viability ([1]; first compound 0.1265 µM),relative viability ([1]; first compound 0.4 µM),relative viability ([1]; first compound 1.265 µM),relative viability ([1]; first compound 4 µM),relative viability ([2]; first compound 0.04 µM),relative viability ([2]; first compound 0.1265 µM),relative viability ([2]; first compound 0.4 µM),relative viability ([2]; first compound 1.265 µM),relative viability ([2]; first compound 4 µM),relative viability (Salubrinal + Foretinib; first compound 0.08 µM),relative viability (Salubrinal + Foretinib; first compound 0.253 µM),relative viability (Salubrinal + Foretinib; first compound 0.8 µM),relative viability (Salubrinal + Foretinib; first compound 2.53 µM),relative viability (Salubrinal + Foretinib; first compound 8 µM),relative viability (Salubrinal + Crizotinib; first compound 0.08 µM),relative viability (Salubrinal + Crizotinib; first compound 0.253 µM),relative viability (Salubrinal + Crizotinib; first compound 0.8 µM),relative viability (Salubrinal + Crizotinib; first compound 2.53 µM),relative viability (Salubrinal + Crizotinib; first compound 8 µM)
HOP-62,0.981,0.946,0.942,0.667,0.975,0.772,0.626,0.644,0.634,0.649,1.07,0.981,1.22,1.08,1.14,1.04,0.965,1.21,0.914,0.26
LC-2-ad,0.953,0.827,0.86,1,0.875,0.701,0.582,0.497,0.592,0.324,0.887,0.939,0.919,0.966,0.886,0.447,0.385,0.537,0.471,0.459
LCLC-97TM1,0.321,0.241,0.225,0.183,0.194,0.941,0.816,0.85,0.911,0.732,0.908,0.885,0.862,0.901,1.03,0.382,0.507,0.446,,0.364
LCLC-103H,0.996,0.938,0.94,0.884,0.991,0.584,0.495,0.421,0.562,0.442,0.849,0.687,0.818,0.768,0.817,1.07,1.06,1.05,1.07,0.984
LK-2,1.07,1.08,0.935,1.05,0.864,0.251,0.223,0.27,0.229,0.268,0.983,1.18,1.6,1.24,1.09,0.249,0.252,0.247,0.218,0.23
LOU-NH91,0.739,0.736,0.735,0.674,0.696,0.562,0.547,0.531,0.539,0.559,0.948,1.02,0.957,0.921,0.99,0.787,0.747,0.74,0.756,0.75
LU99A,0.59,0.539,0.576,0.609,0.464,0.58,0.605,0.622,0.54,0.544,0.92,0.802,0.841,0.703,0.789,0.588,0.635,0.657,0.528,0.5
LXF-289,1.1,1.01,0.984,1.06,1.03,0.262,0.231,0.247,0.245,0.275,1.12,0.909,1.01,0.963,0.925,0.869,0.73,0.818,0.757,0.8
